Test results: ChEMBL document CHEMBL5096182, “Aurora kinase inhibitors as potential anticancer agents: Recent advances” (Eur J Med Chem, 2021)
Values after ≈ are worked out from the molar mass of the structure shown.

Experiments:
A549 [1] = assay: Antiproliferative activity against human A549 cells incubated for 72 hrs by MTT assay; assay type: functional, cell-based; details: A549, 72 h
Aurora kinase A [2] = molecular target: T1, Aurora kinase A (Homo sapiens, UniProt O14965); assay: Inhibition of human Aurora A using LeuArgArgAlaSerLeuGly as substrate
T1 sequence (O14965 whole entry): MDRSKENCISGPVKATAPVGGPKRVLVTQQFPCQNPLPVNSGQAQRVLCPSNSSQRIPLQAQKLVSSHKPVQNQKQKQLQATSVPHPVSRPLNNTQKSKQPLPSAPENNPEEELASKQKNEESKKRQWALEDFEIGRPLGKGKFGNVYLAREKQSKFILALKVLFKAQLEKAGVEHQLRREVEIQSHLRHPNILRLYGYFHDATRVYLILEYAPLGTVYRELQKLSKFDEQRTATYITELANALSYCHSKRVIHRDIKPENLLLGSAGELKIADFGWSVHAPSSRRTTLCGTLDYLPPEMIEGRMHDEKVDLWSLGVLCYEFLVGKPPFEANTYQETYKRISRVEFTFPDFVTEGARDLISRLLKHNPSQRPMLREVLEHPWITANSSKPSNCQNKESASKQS

Aurora kinase A [3] = molecular target: T1, Aurora kinase A; assay: Inhibition of Aurora A (unknown origin) using recombinant Lats2-N-ter as substrate incubated in the presence of ATP
[4] = Inhibition of Aurora B (unknown origin) using Ulight-PLK (Ser137) as substrate incubated for 60 mins by FRET-based Lance Ultra Kinase assay; parameters: species or system Homo sapiens
HCT-116 [5] = assay: Antiproliferative activity against human HCT-116 cells incubated for 48 hrs by SRB assay; assay type: functional, cell-based; details: HCT-116, 48 h
A2780 = assay: Antiproliferative activity against human A2780 cells incubated for 48 hrs by SRB assay; assay type: functional, cell-based; details: A2780, 48 h
HepG2 [6] = assay: Antiproliferative activity against human HepG2 cells incubated for 48 hrs by SRB assay; assay type: functional, cell-based; details: HepG2, 48 h
HCT-116 [7] = assay: Antiproliferative activity against human HCT-116 cells by MTT assay
Aurora kinase A [8] = molecular target: T1, Aurora kinase A; assay: Inhibition of N-terminal GST tagged Aurora A (unknown origin) expressed in recombinant baculovirus-infected Sf9 cells using tetra(LRRWSLG) as substrate preincubated for 15 mins followed by the addition of substrate for 90 mins in the presence of ATP by Kinase-Glo Plus reagent based luminescence assay
HepG2 [9] = assay: Antiproliferative activity against human HepG2 cells; assay type: functional, cell-based
[10] = molecular target: T2, Aurora kinase A (Homo sapiens) (UniProt O14965); assay: Inhibition of Aurora kinase A (unknown origin) using LeuArgArgAlaSerLeuGly as substrate at 10 uM incubated in presence of ATP relative to control
T2 sequence (whole entry): T1 sequence (O14965 whole entry)

HCT-116 [11] = assay: Anticancer activity against human HCT-116 cells assessed as cell growth inhibition measured after 7 days by crystal violet staining based clonogenic long-term survival assay; assay type: functional; details: HCT-116, 168 h, time 7 day
A-375 = assay: Antiproliferative activity against human A-375 cells incubated for 72 hrs by alamar blue cell viability assay; assay type: functional, cell-based; details: A-375, 72 h
MCF7 = assay: Antiproliferative activity against human MCF7 cells incubated for 72 hrs by alamar blue cell viability assay; assay type: functional, cell-based; details: MCF7, 72 h
[12] = Oral bioavailability in mouse at 10 mg/kg; assay type: ADME, organism-based; details: in vivo
MDA-MB-231 = assay: Antiproliferative activity against human MDA-MB-231 cells incubated for 72 hrs by alamar blue cell viability assay; assay type: functional, cell-based; details: MDA-MB-231, 72 h
SK-OV-3 = assay: Antiproliferative activity against human SK-OV-3 cells incubated for 72 hrs by alamar blue cell viability assay; assay type: functional, cell-based; details: SK-OV-3, 72 h
A549 [13] = assay: Antiproliferative activity against human A549 cells incubated for 72 hrs by alamar blue cell viability assay; assay type: functional, cell-based; details: A549, 72 h

Molecule `O=C(N/N=C/c1coc2ccccc2c1=O)c1ccc(F)cc1` has an IC50 (A549 [1]) of 1140 nM and an IC50 (Aurora kinase A [2]) of 1140 nM.

Work on `C=CCn1c(C)nc2ccc(Nc3nc(N4CCN(C)CC4)nc4ccccc34)cc21` yielded an IC50 (Aurora kinase A [3]) of 35 nM.

For `CC(=O)N1CCN(c2ccc(Nc3ncc(F)c(N4CCN(C)c5cc(F)ccc5C4)n3)cc2)CC1`, the IC50 [4] was 9 nM.

Molecule `COc1ccccc1C1C(C(=O)Nc2ccc(-c3nc4ccccc4[nH]3)cc2)=C(N)NC2SC=CN21` (stereo unspecified) has an IC50 (HCT-116 [5]) of 1200 nM, an IC50 (A2780) of 3100 nM and an IC50 (HepG2 [6]) of 2110 nM.

Molecule `COc1cc2ncnc(NCCc3ccc(NC(=O)Nc4ccccc4)cc3)c2cc1OC` has an IC50 (HCT-116 [7]) of 23 nM and an IC50 (Aurora kinase A [8]) of 25 nM.

`NC1=C(C(=O)Nc2ccc(-c3nc4ccccc4[nH]3)cc2)C(c2ccc([N+](=O)[O-])cc2)N2C=CSC2N1` (stereo unspecified) gave an IC50 (HCT-116 [5]) of 1320 nM, an IC50 (A2780) of 3500 nM and an IC50 (HepG2 [6]) of 2340 nM.

With `COc1cccc2c1C(=O)c1c(O)c3c(c(O)c1C2=O)C[C@@](O)(C(=O)CO)C[C@@H]3O[C@H]1C[C@H](N)[C@H](O)[C@H](C)O1` [DOXORUBICIN] the IC50 (HepG2 [9]) was 3.56 µg/mL (≈ 6.55 µM).

For `COc1ccc(-c2cc(-c3nnn(-c4ccc(Br)cc4)c3C)nc(N)c2C#N)cc1`, the IC50 (HepG2 [9]) was 2.34 µg/mL (≈ 5.07 µM).

`COc1ccc(-c2cc(-c3ccccc3O)nc(N)n2)c(OC)c1` gave an inhibition [10] of 95% and a GI50 (HCT-116 [11]) of 1450 nM.

In the case of `Cc1c(-c2cc(-c3cn(-c4ccccc4)nc3-c3nnn(-c4ccc(Br)cc4)c3C)c(C#N)c(N)n2)nnn1-c1ccc(Br)cc1`, the IC50 (HepG2 [9]) is reported as 0.64 µg/mL (≈ 0.873 µM).

With `Cc1c(-c2cc(-c3cn(-c4ccccc4)nc3-c3nnn(-c4cccc([N+](=O)[O-])c4)c3C)c(C#N)c(N)n2)nnn1-c1ccc(Br)cc1` the IC50 (HepG2 [9]) was 1.08 µg/mL (≈ 1.54 µM).

For `CN1CCN(c2ccc(Nc3ncc(F)c(N4CCN(C)c5cc(F)ccc5C4)n3)cc2)CC1`, the IC50 [4] was 7 nM.

`CN1CCN(c2nc(Nc3ccc(S(N)(=O)=O)cc3)ncc2F)Cc2ccc(F)cc21` showed an IC50 (A-375) of 3970 nM, an IC50 (MCF7) of 570 nM and a bioavailability [12] of 73%. For the same molecule, the IC50 (MDA-MB-231) was 420 nM, the IC50 (SK-OV-3) was 690 nM and the IC50 (A549 [13]) was 1530 nM. For the same molecule, the IC50 [4] was 8 nM.
